Values of other authors, collected in PubChem BioAssay AID1259409 (Chemical Carcinogenesis Research Information System (CCRIS), 2018).

Test system: rodent chemically induced tumor inhibition, incidence and multiplicity
Experiment: CCRIS tumor inhibitor studies

SMILES: O=c1cc(-c2ccccc2)oc2ccc3ccccc3c12
- tumour outcome (control, treated, inhibition, significance) (Carcinogen: 2-AMINO-1-METHYL-6-PHENYLIMIDAZO[4,5-B]PYRIDINE [105650-23-5], Dose [Inhibitor]: 1000 PPM IN DIET FOR 4 WK BEGINNING WK PRIOR TO FIRST CARCINOGEN DOSE (STUDY DURATION: 25 WK), Route [Inhibitor]: ORAL, Species: RAT, Strain/Sex: SPRAGUE-DAWLEY/FEMALE, Target Tissue: Type of Lesion: MAMMARY GLAND: FIBROADENOMA OR DUCTAL CARCINOMA, Dose [Carcinogen]: 85 MG/KG BW 2X/WK FOR 4 WK (STUDY DURATION: 25 WK), Promoter: NONE): 67.7%, 12.5%, 82%, p<0.001
- tumour outcome (control, treated, inhibition, significance) (Carcinogen: 7,12-DIMETHYLBENZ[A]ANTHRACENE [57-97-6], Dose [Inhibitor]: 500 PPM IN DIET FOR 10 WK BEGINNING 1 WK PRIOR TO FIRST CARCINOGEN DOSE (STUDY DURATION: 11 MONTHS), Route [Inhibitor]: ORAL, Species: FISH, Strain/Sex: RAINBOW TROUT/MALE, FEMALE, Target Tissue: Type of Lesion: LIVER: TUMOR, Dose [Carcinogen]: 800 PPM IN DIET FOR 9 WK (STUDY DURATION: 11 MONTHS), Promoter: NONE): 4%, 7%, -75%, not significant
- tumour outcome (control, treated, inhibition, significance) (Carcinogen: 7,12-DIMETHYLBENZ[A]ANTHRACENE [57-97-6], Dose [Inhibitor]: 500 PPM IN DIET FOR 10 WK BEGINNING 1 WK PRIOR TO FIRST CARCINOGEN DOSE (STUDY DURATION: 11 MONTHS), Route [Inhibitor]: ORAL, Species: FISH, Strain/Sex: RAINBOW TROUT/MALE, FEMALE, Target Tissue: Type of Lesion: STOMACH: TUMOR, Dose [Carcinogen]: 800 PPM IN DIET FOR 9 WK (STUDY DURATION: 11 MONTHS), Promoter: NONE): 92%, 28%, 70%, p<0.001
- tumour outcome (control, treated, inhibition, significance) (Carcinogen: 7,12-DIMETHYLBENZ[A]ANTHRACENE [57-97-6], Dose [Inhibitor]: 500 PPM IN DIET FOR 10 WK BEGINNING 1 WK PRIOR TO FIRST CARCINOGEN DOSE (STUDY DURATION: 11 MONTHS), Route [Inhibitor]: ORAL, Species: FISH, Strain/Sex: RAINBOW TROUT/MALE, FEMALE, Target Tissue: Type of Lesion: SWIM BLADDER: TUMOR, Dose [Carcinogen]: 800 PPM IN DIET FOR 9 WK (STUDY DURATION: 11 MONTHS), Promoter: NONE): 46%, 27%, 41%, p<0.001
- tumour outcome (control, treated, inhibition, significance) (Carcinogen: 7,12-DIMETHYLBENZ[A]ANTHRACENE, 57-97-6, Dose [Inhibitor]: 100 UG APPLIED ONCE 5 MIN BEFORE DMBA (STUDY DURATION: 28 WK), Route [Inhibitor]: DERMAL, Species: MOUSE, Strain/Sex: CD-1/FEMALE, Target Tissue: Type of Lesion: SKIN: PAPILLOMA, Dose [Carcinogen]: 2.56 UG APPLIED ONCE 5 MIN AFTER INHIBITOR, Promoter: 12-O-TETRADECANOYLPHORBOL-13-ACETATE, 16561-29-8): 82%, 65%, 21%, not calculated
- tumour outcome (control, treated, inhibition, significance) (Carcinogen: 7,12-DIMETHYLBENZ[A]ANTHRACENE, 57-97-6, Dose [Inhibitor]: 1000 UG APPLIED ONCE 5 MIN BEFORE DMBA (STUDY DURATION: 28 WK), Route [Inhibitor]: DERMAL, Species: MOUSE, Strain/Sex: CD-1/FEMALE, Target Tissue: Type of Lesion: SKIN: PAPILLOMA, Dose [Carcinogen]: 2.56 UG APPLIED ONCE 5 MIN AFTER INHIBITOR, Promoter: 12-O-TETRADECANOYLPHORBOL-13-ACETATE, 16561-29-8): 82%, 60%, 27%, not calculated
- tumour outcome (control, treated, inhibition, significance) (Carcinogen: DIETHYLNITROSAMINE, 55-18-5, Dose [Inhibitor]: 500 PPM IN DIET FOR 6 WK PRIOR TO CARCINOGEN DOSE (STUDY DURATION: 48 WK), Route [Inhibitor]: ORAL, Species: FISH, Strain/Sex: MT. SHASTA RAINBOW/MALE, FEMALE, Target Tissue: Type of Lesion: LIVER: HEPATOCELLULAR CARCINOMA AND HEPATOCHOLANGIOCELLULAR CARCINOMA, Dose [Carcinogen]: 250 PPM AQUEOUS SOLUTION FOR 24 HR, Promoter: NONE USED): 105/131 (80%), 90/98 (92%), -15%, p=0.0102
- tumour outcome (control, treated, inhibition, significance) (Carcinogen: N-NITROSOETHYLUREA, 759-73-9, Dose [Inhibitor]: 0, 150 MG/KG IN OLIVE OIL 48 HR PRIOR TO CARCINOGEN DOSE (STUDY DURATION: 8 WK), Route [Inhibitor]: INTRAPERITONEAL, Species: MOUSE, Strain/Sex: AKR/FEMALE, Target Tissue: Type of Lesion: LUNG: TUMOR, Dose [Carcinogen]: 8 MG/KG IN 0.22 MOLAR SODIUM CITRATE BUFFER 1/WK FOR 4 WK, Promoter: NONE USED): 8/32 (25%), 8/35 (23%), 8%, not calculated
- tumour outcome (control, treated, inhibition, significance) (Carcinogen: N-NITROSOETHYLUREA, 759-73-9, Dose [Inhibitor]: 0, 150 MG/KG IN OLIVE OIL 48 HR PRIOR TO CARCINOGEN DOSE (STUDY DURATION: 8 WK), Route [Inhibitor]: INTRAPERITONEAL, Species: MOUSE, Strain/Sex: C3H/HE/FEMALE, Target Tissue: Type of Lesion: LUNG: TUMOR, Dose [Carcinogen]: 8 MG/KG IN 0.22 MOLAR SODIUM CITRATE BUFFER 1/WK FOR 4 WK, Promoter: NONE USED): 26/33 (79%), 25/29 (86%), -9%, not calculated
- tumour outcome (control, treated, inhibition, significance) (Carcinogen: N-NITROSOETHYLUREA, 759-73-9, Dose [Inhibitor]: 0, 150 MG/KG IN OLIVE OIL 48 HR PRIOR TO CARCINOGEN DOSE (STUDY DURATION: 8 WK), Route [Inhibitor]: INTRAPERITONEAL, Species: MOUSE, Strain/Sex: C57BL/FEMALE, Target Tissue: Type of Lesion: LUNG: TUMOR, Dose [Carcinogen]: 8 MG/KG IN 0.22 MOLAR SODIUM CITRATE BUFFER 1/WK FOR 4 WK, Promoter: NONE USED): 9/35 (26%), 17/29 (57%), -119%, not calculated
